Experimental data published in ChEMBL document CHEMBL1142633, “A cytotoxic lobane diterpene from the formosan soft coral Sinularia inelegans” (2000).
Converted amounts (≈) assume the structure as drawn.

Legend:
A549 = assay: Cytotoxicity against human A549 cells; format: functional
P388 = assay: Cytotoxicity against mouse P388 cells; format: functional

C=C[C@@]1(C)CC[C@H](/C(C)=C\CCC(=C)C)C[C@@H]1C(=C)C [INELEGANENE]
GI50 (A549): 3.63 µg/mL (≈ 13.3 µM)
GI50 (P388): 0.2 µg/mL (≈ 0.734 µM)
